# Test results from patent US20070021351A1, “Liver/plasma concentration ratio for dosing hepatitis C virus protease inhibitor” (Schering Corporation, priority 2005, published 2007).
# How the values were obtained:
# [1] = system: HCV polyprotein processing; test: Kinetic studies following polyprotein processing intermediates; type: cell-based
# [2] = Example 2: food-effect crossover study, 600 mg single dose, healthy adult subjects; type: in vivo, human
# Procedure: This was a randomized, open-label, single-dose, two-treatment (fed or fasted), two-period, two-sequence crossover study of the effect of food on the bioavailability of compound of Formula Ia in 23 healthy adult male and female subjects. The primary pharmacokinetic parameters were AUC(I) and Cmax for compound of Formula Ia. The study included a 7-day wash-out period between treatment periods.
# Subjects were confined at the study site at least 14 hours prior to each treatment (Day-1). On the morning of Day 1, following a 10-hour overnight fast, subjects were randomized to receive in a particular order Treatment A and Treatment B: • Treatment A: compound of Formula Ia 600 mg (6×100 mg capsules) PO following an overnight fast. • Treatment B: compound of Formula Ia 600 mg (6×100 mg capsules) PO within 20 minutes following the completion of a standard high-fat breakfast. There was a 7-day wash-out period between receiving treatments.
# Subjects receiving Treatment A received a formulation of compound of Formula Ia comprised of compound of Formula Ia and a pharmaceutically acceptable carrier, such as microcrystalline cellulose, while continuing to fast, while subjects randomized to Treatment B consumed a standardized high-fat meal prior to compound administration (within 20 minutes prior to the compound administration). The capsules along with approximately 240 mL of water were swallowed whole, not chewed or crushed. […] Water was permitted as desired except for 1 hour before and after compound administration. A washout period of at least 7 days separated the two treatment periods. Upon return to the clinic, subjects underwent the same procedures as the first period and continued the randomization sequence (subjects who received compound of Formula Ia fasted in Period 1 and then received compound of Formula Ia under fed conditions in Period 2, and vice versa).
# Blood samples (7 mL each) for the determination of compound of Formula Ia levels were drawn immediately prior to dosing (0 hour), and at 0.5, 1, 1.5, 2, 2.5, 3, 4, 5, 6, 8, 12, 24, 36, and 48 hours after dosing. The blood samples were collected into tubes containing EDTA. The samples were centrifuged at 1500 g for 10 minutes to obtain plasma and the plasma samples were frozen at −20° C. and maintained in the frozen state until assayed.
# Plasma concentrations of compound of Formula Ia were determined using a validated liquid chromatography tandem mass spectrometry (LC-MS/MS) method. The assay lower limit of quantitation (LLOQ) was 0.50 ng/mL and the method was validated over the concentration range of 0.50 to 1000 ng/mL.
# The mean and percent coefficient of variation (% CV) were calculated for plasma concentrations of compound of Formula Ia at each time point. Concentration values less than the assay LLOQ were reported as, and set to zero in the tables and calculations. The plasma concentration-time data for compound of Formula Ia were subjected to pharmacokinetic analysis by noncompartmental methods using WinNonlin software. Nominal sampling times were used for pharmacokinetic analysis, since none of the pharmacokinetic sampling time deviations were >10% of the nominal times. For each subject, the following pharmacokinetic parameters were determined for compound of Formula Ia: maximum plasma concentration (Cmax), time of maximum observed plasma concentration (Tmax), the final quantifiable sampling time (tf), area under the plasma concentration-time curve from time 0 to tf (AUC[tf]), AUC(I) (AUC[tf]+C[tf]estimated/K) and Vd/F. The K and C(tf)estimated are defined as terminal elimination rate constant and estimated concentration at final quantifiable sample, respectively. Terminal phase half-life (t½=In2/K) and apparent clearance (CL/F=Dose/AUC[I]) were also determined. Cmax, Tmax and tf were the observed values. […]
smiles,measurement,setting,value
"CC(C)(C)NC(=O)N[C@H](C(=O)N1C[C@H]2[C@@H]([C@H]1C(=O)NC(CC1CCC1)C(=O)C(N)=O)C2(C)C)C(C)(C)C (mixture of isomers) [Formula Ia, (1R,5S)-N-[3-Amino-1-(Cyclobutylmethyl)-2,3-Dioxopropyl]-3-[2(S)-[[[(1,1-Dimethylethyl)Amino]Carbonyl]Amino]-3,3-Dimethyl-1-Oxobutyl]-6,6-Dimethyl-3-Azabicyclo[3.1.0]Hexan-2(S)-Carboxamide]",time until effects become evident,[1],one
same,"apparent mean Vd/F, fed versus fasted (times lower)",[2]; 600 mg oral,about five
same,safety profile,"[2]; 600 mg oral dose, fed and fasted states",low frequency of treatment emergent and treatment related AEs
same,"delay of median Tmax, fed versus fasted",[2]; 600 mg single oral dose,approximately three
same,"median concentration at 8 hours, fed relative to fasted",[2]; 600 mg single oral dose,more than 4 fold
same,"median concentration at 12 hours, fed relative to fasted",[2]; 600 mg single oral dose,2 fold
same,AUC(I),"[2]; 600 mg single oral dose, fed, mean, n=19",3697 ng·h/mL
same,"AUC(l) ratio estimate, fed to fasted","[2]; 600 mg, female, n=10",225%
same,"AUC(tf) ratio estimate, fed to fasted","[2]; 600 mg, female, n=10",229%
same,"Cmax ratio estimate, fed to fasted","[2]; 600 mg, female, n=10",170%
same,increase of relative (oral) bioavailability (AUC) in the fed state,"[2]; 600 mg, high-fat meal relative to fasted",over 100%
same,"AUC(l) ratio estimate, fed to fasted","[2]; 600 mg, male, n=10",202%
same,"AUC(tf) ratio estimate, fed to fasted","[2]; 600 mg, male, n=10",205%
same,"Cmax ratio estimate, fed to fasted","[2]; 600 mg, male, n=10",155%
same,"AUC(l) ratio estimate, fed to fasted","[2]; 600 mg, n=20",214%
same,"AUC(tf) ratio estimate, fed to fasted","[2]; 600 mg, n=20",217%
same,"Cmax ratio estimate, fed to fasted","[2]; 600 mg, n=20",162%
same,absorption lag time in the fed state vs the fasted state,[2]; in 12 of the 20 subjects who completed both periods,> 0.5 h
